Columns and labels:
Assay type in all cases: in vivo
[1] = system: Avena fatua (AVEFA); assay: Pre-emergence herbicidal activity, glasshouse pot test; details: evaluated after 13 days; for pest or weed control at 250 g/ha: Avena fatua, 312 h, Rate 250 g/ha, read-out: Pre-emergence activity AVEFA (100=total damage to plant; 0=no damage to plant)
In short: (§1)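 Visual damage (0 = no damage, 100 = total damage) was rated 13 days after spraying. Treatment was applied one day after sowing for pre-emergence, or after 8 days of cultivation for post-emergence, as aqueous spray of an acetone/water (50:50) formulation with 0.5% Tween 20.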

[2] = system: Lolium perenne (LOLPE); assay: as above; details: evaluated after 13 days; for pest or weed control at 250 g/ha: Lolium perenne, 312 h, Rate 250 g/ha, read-out: Pre-emergence activity LOLPE (100=total damage to plant; 0=no damage to plant)
In short: as §1

[3] = system: Echinochloa crus-galli (ECHCG); assay: as above; details: evaluated after 13 days; for pest or weed control at 250 g/ha: Echinochloa crus-galli, 312 h, Rate 250 g/ha, read-out: Pre-emergence activity ECHCG (100=total damage to plant; 0=no damage to plant)
In short: as §1

[4] = system: Alopecurus myosuroides (ALOMY); assay: as above; details: evaluated after 13 days; for pest or weed control at 250 g/ha: Alopecurus myosuroides, 312 h, Rate 250 g/ha, read-out: Pre-emergence activity ALOMY (100=total damage to plant; 0=no damage to plant)
In short: as §1

[5] = system: Avena fatua (AVEFA); assay: Post-emergence herbicidal activity, glasshouse pot test; details: rate 250 g/ha, evaluated after 13 days; for pest or weed control at 250 g/ha: Avena fatua, 312 h, read-out: Post-emergence activity AVEFA (100=total damage to plant; 0=no damage to plant)
In short: as §1

[6] = system: Lolium perenne (LOLPE); assay: as above; details: rate 250 g/ha, evaluated after 13 days; for pest or weed control at 250 g/ha: Lolium perenne, 312 h, read-out: Post-emergence activity LOLPE (100=total damage to plant; 0=no damage to plant)
In short: as §1

[7] = system: Echinochloa crus-galli (ECHCG); assay: as above; details: rate 250 g/ha, evaluated after 13 days; for pest or weed control at 250 g/ha: Echinochloa crus-galli, 312 h, read-out: Post-emergence activity ECHCG (100=total damage to plant; 0=no damage to plant)
In short: as §1

[8] = system: Alopecurus myosuroides (ALOMY); assay: as above; details: rate 250 g/ha, evaluated after 13 days; for pest or weed control at 250 g/ha: Alopecurus myosuroides, 312 h, read-out: Post-emergence activity ALOMY (100=total damage to plant; 0=no damage to plant)
In short: as §1

SMILES | pest or weed control at 250 g/ha ([1]; pre-emergence spray) [%] | pest or weed control at 250 g/ha ([2]; pre-emergence spray) [%] | pest or weed control at 250 g/ha ([3]; pre-emergence spray) [%] | pest or weed control at 250 g/ha ([4]; pre-emergence spray) [%] | pest or weed control at 250 g/ha ([5]; glasshouse) [%] | pest or weed control at 250 g/ha ([6]; glasshouse) [%] | pest or weed control at 250 g/ha ([7]; glasshouse) [%] | pest or weed control at 250 g/ha ([8]; glasshouse) [%] | also measured
CCc1ccc(Oc2ncc(Cl)cc2F)cc1C1=C(O)CC2(CCOCC2)CC1=O [Example A-274] | 100 | 100 | 100 | 100 | 100 | 100 | 100 | 100 | 
CCc1ccc(Oc2ccc(F)cc2Cl)cc1C1=C(O)C(C)(C)OC(C)(C)C1=O [Example A-33] | 10 | 80 | 90 | 20 | 50 | 50 | 100 | 40 | 
CCc1ccc(Oc2ccc(Br)c(Cl)c2)cc1C1=C(O)CC(C)(C)CC1=O [Example A-258] | 10 | 30 | 70 | 30 | 70 | 80 | 100 | 70 | 
CCc1ccc(Oc2ccc(C(F)(F)F)cc2Br)cc1C1=C(O)CC(C)(C)CC1=O [Example A-282] | 10 | 60 | 100 | 10 | 60 | 40 | 100 | 70 | 
CCc1ccc(Oc2cccc(F)c2F)cc1C1=C(O)C(C)(C)OC(C)(C)C1=O [Example A-16] | 0 | 0 | 100 | 0 | 0 | 20 | 80 | 0 | 
CCc1ccc(Oc2nc3ccc(F)cc3nc2Cl)cc1C1=C(O)C(C)(C)OC(C)(C)C1=O [Example A-173] | 0 | 10 | 50 | 0 | 10 | 10 | 20 | 0 | 
CCc1ccc(Oc2nc(OC)cc(OC)n2)cc1C1=C(O)C(C)(C)OC(C)(C)C1=O [Example A-127] | 0 | 0 | 0 | 0 | 0 | 10 | 30 | 0 | 
CCc1ccc(Oc2ccc(F)c(C(F)(F)F)c2)cc1C1=C(O)C(C)(C)OC(C)(C)C1=O [Example A-178] | 0 | 0 | 10 | 10 | 40 | 30 | 80 | 40 | 
CCc1ccc(Oc2ccc([N+](=O)[O-])c(Cl)c2)cc1C1=C(O)[C@H]2CC[C@H](C2)C1=O [Example A-333] | 40 | 90 | 100 | 50 | 70 | 60 | 100 | 60 | 
CCc1ccc(Oc2ccc(Br)cc2Cl)cc1C1=C(O)[C@@H]2CC[C@](C)(C1=O)C2(C)C [Example A-240] | 0 | 70 | 70 | 30 | 40 | 60 | 70 | 30 | 
CC1(C)OC(C)(C)C(O)=C(c2cc(Oc3nc4ccccc4s3)ccc2C2CC2)C1=O [Example A-365] |  |  |  |  |  |  |  |  | pest or weed control at 250 g/ha ([1]; pre-emergence): 0%; pest or weed control at 250 g/ha ([2]; pre-emergence): 90%; pest or weed control at 250 g/ha ([3]; pre-emergence): 100%; pest or weed control at 250 g/ha ([4]; pre-emergence): 80%; pest or weed control at 250 g/ha [5]: 10%; pest or weed control at 250 g/ha [6]: 100%; pest or weed control at 250 g/ha [7]: 100%; pest or weed control at 250 g/ha [8]: 100%
CCOC(=O)OC1=C(c2cc(Oc3ccc(C#N)cc3F)ccc2CC)C(=O)C(C)(C)OC1(C)C [Example P-5] |  |  |  |  |  |  |  |  | AVEFA damage to plant (100=total damage to plant; 0=no damage to plant) ([1]; pre-emergence, rate 250 g/ha): 70; LOLPE damage to plant (100=total damage to plant; 0=no damage to plant) ([2]; pre-emergence, rate 250 g/ha): 100; ECHCG damage to plant (100=total damage to plant; 0=no damage to plant) ([3]; pre-emergence, rate 250 g/ha): 100; ALOMY damage to plant (100=total damage to plant; 0=no damage to plant) ([4]; pre-emergence, rate 250 g/ha): 100; AVEFA damage to plant (100=total damage to plant; 0=no damage to plant) [5]: 70; LOLPE damage to plant (100=total damage to plant; 0=no damage to plant) [6]: 80; ECHCG damage to plant (100=total damage to plant; 0=no damage to plant) [7]: 100; ALOMY damage to plant (100=total damage to plant; 0=no damage to plant) [8]: 80
CCc1ccc(Oc2ncc(C(F)(F)F)cc2C(F)(F)F)cc1C1=C(O)CC2(CCOCC2)CC1=O [Example A-269] | 80 | 90 | 100 | 100 | 90 | 70 | 100 | 90 | 
CCc1ccc(Oc2ccc(Br)cc2Cl)cc1C1=C(O)[C@H]2CC[C@H](C2)C1=O [Example A-244] | 0 | 70 | 90 | 20 | 70 | 80 | 90 | 60 | 
CCc1ccc(Oc2cc(F)c(C#N)c(F)c2)cc1C1=C(O)C(C)(C)OC(C)(C)C1=O [Example A-207] | 10 | 60 | 70 | 30 | 80 | 90 | 100 | 80 | 
CCc1ccc(Oc2ccc(Cl)cc2Br)cc1C1=C(O)C(C)(C)OC(C)(C)C1=O [Example A-23] | 70 | 90 | 90 | 70 | 80 | 90 | 100 | 80 | 
CCc1ccc(Oc2ccc(Cl)cc2)cc1C1=C(O)CCCC1=O [Example A-27] | 60 | 60 | 100 | 40 | 40 | 30 | 90 | 30 | 
CCc1ccc(Oc2ccc(C(F)(F)F)cc2[N+](=O)[O-])cc1C1=C(O)[C@H]2CC[C@H](C2)C1=O [Example A-344] | 30 | 80 | 100 | 40 | 90 | 70 | 90 | 60 | 
